Experimental findings from patent publication US4738979A, “α2 -blocking derivatives of imidazole” (G. D. Searle & Co., priority 1985, dated 1988) are described below.

Molecules are shown by their SMILES. Entries after “also recorded” stand apart in the source; their conditions may differ. Where two headings read alike, the source gives them in different places. Some results are limits rather than exact numbers.

Series [1] has as its system peripheral vascular α2 receptors. Kind of series: inhibition of the pressor effect of BHT 920 in pithed rats. The format is in vivo, rat. Conditions: 1 mg/kg i.v., BHT 920 30 μg/kg i.v. As for the experimental part: The α2 antagonist activity of the compounds is evaluated by the inhibition of the pressor effect (blood pressure elevation), of a specific α2 agonist agent, 4H-Thiazolo[4,5-b]azetin-2-amine, 5,6,7,8-tetrahydro-6-(2-propenyl)-, dihydrochloride, designated as BHT 920 at a concentration of 30 μg/kg i.v.) according to a method described by J. C. Van Meel et al., J. Pharmacol. Exp. Ther., 219, 760-767 (1981).
The compound to be tested is administered at 1 mg/kg i.v. The ability of the compounds tested to antagonize the pressor effects of BHT 920 is determined and expressed as percentage of inhibition. Any direct hypertensive (=α2 agonist) activity of the compounds under test can likewise be detected.

The subject of series [2] is bicuculline-induced tonic extension in mice. Kind of series: protection against bicuculline-induced tonic extension in mice. The format is in vivo. Conditions: Mus musculus, iv, 3 hours prior to bicuculline 0.7 mg/kg i.v., read-out: Anticonvulsive effect (versus Bicuculline) (% Protection). As for the experimental part: (§1) In the second study the anti-convulsant effect of the compounds of the present invention was examined in two seizure models; bicuculline-induced tonic extension in mice and 3-mercaptopropionic acid (3-MPA)-induced tonic extension in mice.
(§2) In the bicuculline study, the ability of the compounds of the present invention to protect against tonic extension (involving rigidity) was evaluated as follows. Each test compound was administered to a group of ten mice at a dose of 10 mg/kg, 3 hours prior to the i.v. administration of bicuculline (0.7 mg/kg). Anticonvulsant activity in this test is expressed as percentage of animals tested. The results are given in Table II, column 6, and indicate that several compounds display significant anticonvulsive activity in this test. The anticonvulsant effect of the compounds has also been tested with respect to the tonic extension induced by 3-mercaptopropionic acid (120 mg/kg subcutaneously) in mice.

Series [3] has as its system clonidine-induced depression of locomotor activity and rearing activity. Kind of series: clonidine-induced depression of locomotor activity, open field test in mice. The format is in vivo. Conditions: for minimal effective dose: Mus musculus, 2 hours prior to clonidine 0.3 mg/kg p.o. From the text: The third in vivo study evaluation activity of the compounds of the invention on clonidine induced depression of locomotor activity. The previously-discussed study involving clonidine related to its α2 agonist effects on the brain's regulation of the cardiovascular system. The present study involved clonidine α2 agonist effects on central control of locomotor activity. Clonidine inhibits locomotor activity and rearing activity in the mouse. In this "open field" test, mice are pretreated with the compounds of the present invention at doses of 1 to 10 mg/kg p.o. […] Each compound was evaluated for its ability to antagonize the effect of clonidine. […] Compound No. 1 antagonizes clonidine-induced depression of locomotor activity and rearing activity from 1 mg/kg p.o. and from 3 mg/kg p.o., respectively. The effects of chronic administration of compound No. 1 were also evaluated in this test. In this study, groups of 5-6 mice were treated with compound No. 1 (3 mg/kg p.o.) either twice daily for 14 days (chronic) or with one single dose (acute).

For series [4], the target named is T1, α2 -adrenergic receptors (Rattus norvegicus, UniProt P22909).
T1 construct: from tissue; host or cells: rat brain homogenates
T1 sequence (P22909 1-465): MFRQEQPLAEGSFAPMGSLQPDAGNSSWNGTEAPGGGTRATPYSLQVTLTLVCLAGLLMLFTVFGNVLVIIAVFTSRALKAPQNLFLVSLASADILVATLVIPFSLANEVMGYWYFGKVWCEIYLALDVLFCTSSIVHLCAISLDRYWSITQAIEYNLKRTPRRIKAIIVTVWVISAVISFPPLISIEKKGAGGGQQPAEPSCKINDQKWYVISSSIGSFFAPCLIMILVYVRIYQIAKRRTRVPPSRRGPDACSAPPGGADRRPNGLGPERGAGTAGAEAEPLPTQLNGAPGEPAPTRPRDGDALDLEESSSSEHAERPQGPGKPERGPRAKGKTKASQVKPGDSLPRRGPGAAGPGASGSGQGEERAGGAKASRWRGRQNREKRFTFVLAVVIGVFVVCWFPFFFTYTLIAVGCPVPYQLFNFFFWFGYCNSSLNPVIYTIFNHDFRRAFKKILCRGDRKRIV
Kind of series: binding to α2-adrenergic receptors on rat brain homogenates (3H-p. aminoclonidine). Conditions: 10^-7 M; for inhibition at 0.1 µM: rat brain homogenates, 0.7 nM 3H-p. aminoclonidine, read-out: % Inhibition of the Specific Binding at 10^-7 M for α2 Recep.; for affinity for α2 receptors (in words): in vitro binding assay. Put shortly: (§3)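 Rat brain homogenate competition binding: α1 with 1.6 nM ³H-WB 4101, α2 with 0.7 nM ³H-p-aminoclonidine; nonspecific binding defined by 1,000 nM phentolamine. Values are percent inhibition of specific binding at 10^-7 M compound.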

Series [5] has as its system α1 -adrenergic receptors. Kind of series: binding to α1-adrenergic receptors on rat brain homogenates (3H-WB 4101). Conditions: 1.6 nM 3H-WB 4101. The gist of the method:
as §3

Series [6] deals with 3-mercaptopropionic acid (3-MPA)-induced tonic extension in mice. Kind of series: protection against 3-mercaptopropionic acid (3-MPA)-induced tonic extension in mice. Conditions: 100 mg/kg orally, 30 minutes prior to 3-MPA (120 mg/kg s.c.). The format is in vivo. As to the method: as §1, §2
In the 3-MPA assay, the compounds of the present invention are administered orally at a dose of 100 mg/kg 30 minutes prior to administration of 3-MPA. Each compound was tested on a group of 5 mice; if more than 1 mouse was protected, a second group of 5 mice was tested.

In the case of `c1ccc(C(Cc2c[nH]cn2)c2ccccc2)cc1` [Compound 1, 4(5)-(2,2-diphenylethyl)-imidazole], the “α2 antagonist activity, inhibition of pressor effect of BHT 920 (in words)” value (from here on “α2 antagonist activity, inhibition”) in series [1] is recorded as “very active as α2 antagonist agents”. Also, the responders at 10 mg/kg in series [2] stood at 0%. Moreover, the “activity in the open field test after chronic administration (in words)” value in series [3] (3 mg/kg p.o. twice daily 14 days, clonidine 0.15 mg/kg i.p.) is on record as “at the same level as after acute administration; also recorded: disappeared 24 hours after withdrawal of the drug”. Moreover, the minimal effective dose in series [3] (mice, read-out: active dose antagonizing clonidine-induced depression of locomotor activity) is no less than 1 mg/kg; in series [3] (mice, read-out: active dose antagonizing clonidine-induced depression of rearing activity) it was no less than 3 mg/kg. For the same compound, the “% Inhibition of the Effect of Clonidine on Locomotor Activity in Mice” value was 52% in series [3] (acute, 3 mg/kg p.o., 1 h after last administration, clonidine 0.15 mg/kg i.p.); 59% in series [3] (chronic, 3 mg/kg p.o. twice daily 14 days, 1 h after last administration, clonidine 0.15 mg/kg i.p.); 3% in series [3] (chronic, 3 mg/kg p.o. twice daily 14 days, 24 h after last administration, clonidine 0.15 mg/kg i.p.); 5% in series [3] (chronic, 3 mg/kg p.o. twice daily 14 days, 72 h after last administration, clonidine 0.15 mg/kg i.p.). In series [3] (inferred from open field activity after withdrawal, 14 days twice daily), the “accumulation of the compound after chronic administration (in words)” value is given as “Accumulation of the compound does not appear to occur”. Moreover, the “activity in the open field test (in words)” value in series [3] (mice, 1 to 10 mg/kg p.o., clonidine 0.3 mg/kg p.o.) was “particularly active”. In series [4], the inhibition at 0.1 µM was 89%. Also, in series [4], the “affinity for α2 receptors (in words)” value is on record as “high affinity”. The “% Inhibition of the Specific Binding at 10^-7 M for α1 Recep.” value (“% Inhibition of the Specific Binding” for short) in series [5] is on record as 17%. The “anticonvulsant effect versus 3-MPA (in words)” value in series [6] is “potent anticonvulsant effect”.

Take `CC(c1c[nH]cn1)C(c1ccccc1)c1ccccc1` (stereo not drawn) [Compound 4]: in series [1], the “α2 antagonist activity, inhibition” value is “very active as α2 antagonist agents”. Moreover, the responders at 10 mg/kg in series [2] was 40%. The inhibition at 0.1 µM in series [4] stood at 5%. The “% Inhibition of the Specific Binding” value in series [5] stood at 4%.

Take `Cc1cccc(C(Cc2c[nH]cn2)c2ccccc2)c1` (stereo not drawn) [Compound 9, 4(5)-{[2-(3-methylphenyl)-2-phenyl]ethyl}imidazole]: the “α2 antagonist activity, inhibition” value in series [1] was “very active as α2 antagonist agents”. In series [2], the responders at 10 mg/kg stood at 20%. Besides, in series [4], the inhibition at 0.1 µM amounted to 85% and the “affinity for α2 receptors (in words)” value is “high affinity”. Also, the “% Inhibition of the Specific Binding” value in series [5] came out at 4%.

As to `Cc1ccccc1C(Cc1c[nH]cn1)c1ccccc1` (stereo not drawn) [Compound 12], in series [1], the “α2 antagonist activity, inhibition” value was “very active as α2 antagonist agents”. In addition, the responders at 10 mg/kg in series [2] stood at 50%. Besides, the inhibition at 0.1 µM in series [4] came to 71%. For the same compound, the “% Inhibition of the Specific Binding” value in series [5] was found to be 0%.

`Clc1ccccc1C(Cc1c[nH]cn1)c1ccccc1` (stereo not drawn) [Compound 13, 4(5)-{[2-(2-chlorophenyl)-2-phenyl]ethyl}imidazole]: the “α2 antagonist activity, inhibition” value in series [1] is reported as “very active as α2 antagonist agents”. Moreover, the responders at 10 mg/kg in series [2] came to 20%. Besides, in series [4], the inhibition at 0.1 µM stood at 81% and the “affinity for α2 receptors (in words)” value was “high affinity”. Moreover, in series [5], the “% Inhibition of the Specific Binding” value is on record as 7%. Further, the “anticonvulsant effect versus 3-MPA (in words)” value in series [6] was “potent anticonvulsant effect”.

On to `Fc1ccc(C(Cc2c[nH]cn2)c2ccccc2)cc1` (stereo not drawn) [Compound 14, 4(5)-{[2-(4-fluorophenyl)-2-phenyl]ethyl}imidazole], for which the “α2 antagonist activity, inhibition” value in series [1] is recorded as “very active as α2 antagonist agents”. Moreover, in series [2], the responders at 10 mg/kg was determined as 0%. For the same compound, in series [4], the inhibition at 0.1 µM was 69%. In addition, the “% Inhibition of the Specific Binding” value in series [5] was 0%.

Consider `Fc1ccc(C(Cc2c[nH]cn2)c2ccccc2F)cc1` (stereo not drawn) [Compound 15, 4(5)-{[2-(2-fluorophenyl)-2-(4'-fluorophenyl)]ethyl}imidazole], for which the “α2 antagonist activity, inhibition” value in series [1] is given as “very active as α2 antagonist agents”. In addition, in series [2], the responders at 10 mg/kg was found to be 0%. Also, the inhibition at 0.1 µM in series [4] was 77%. Also, in series [5], the “% Inhibition of the Specific Binding” value worked out at 7%.

In the case of `Cc1ccc(C)c(C(Cc2c[nH]cn2)c2ccccc2)c1` (stereo not drawn) [Compound 16], the responders at 10 mg/kg in series [2] is 20%. Besides, in series [4], the inhibition at 0.1 µM is 31%. The “% Inhibition of the Specific Binding” value in series [5] was found to be 0%. The “anticonvulsant effect versus 3-MPA (in words)” value in series [6] is on record as “potent anticonvulsant effect”.

As for `COc1ccc(C(Cc2c[nH]cn2)c2ccccc2)cc1` (stereo not drawn) [Compound 17, 4(5)-{[2-(4-methoxyphenyl)-2-phenyl]ethyl}imidazole], the “α2 antagonist activity, inhibition” value in series [1] is given as “very active as α2 antagonist agents”. The responders at 10 mg/kg in series [2] turned out to be 10%. Besides, the inhibition at 0.1 µM in series [4] amounted to 78%. In series [5], the “% Inhibition of the Specific Binding” value is 6%.

With `Cc1ccc(C(Cc2c[nH]cn2)c2ccccc2)cc1` (stereo not drawn) [Compound 21], the “α2 antagonist activity, inhibition” value in series [1] is recorded as “very active as α2 antagonist agents”. In addition, in series [2], the responders at 10 mg/kg worked out at 50%. The inhibition at 0.1 µM in series [4] turned out to be 74%. In addition, the “% Inhibition of the Specific Binding” value in series [5] was determined as 4%.
